Test results as given in ChEMBL document CHEMBL1201862, “PubChem BioAssay data set” (2004).
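Five compound concentrations were applied to cells in 96-well plates for 48 hours; endpoints were derived by simple linear interpolation of the resulting dose-response curve. At the GI50, growth is halved.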 Active and inactive are the calls of the source. No stated cut-off is given here; in the data, active = GI50 up to about 1.1 µM and inactive = higher. Positions of bridges follow the written chain, without caps; N, C: chain ends. Residues, ends and D or L forms follow the SMILES beside them.

Columns and labels:
Experiment in all cases: growth of human tumour cells (NCI), 48 h
A498 = test system: A498
A549 = test system: A549
DU-145 = test system: DU-145
IGROV-1 = test system: IGROV-1
MCF7 = test system: MCF7
MDA-MB-435 = test system: MDA-MB-435
NCI-H460 = test system: NCI-H460
SF-295 = test system: SF-295
SK-MEL-28 = test system: SK-MEL-28
SK-MEL-2 = test system: SK-MEL-2
SK-MEL-5 = test system: SK-MEL-5
SNB-19 = test system: SNB-19
SNB-75 = test system: SNB-75
SW-620 = test system: SW-620
TK-10 = test system: TK-10
U-251 = test system: U-251
UO-31 = test system: UO-31
LOX IMVI = test system: LOX IMVI
OVCAR-3 = test system: OVCAR-3
RPMI-8226 = test system: RPMI-8226

**Q.** For `CCN(CC)Cc1cc(Nc2c3ccccc3nc3c2[nH]c2ccccc23)cc(CN(CC)CC)c1O`, which GI50 (A498) is on record?
**A.** 1.53 µM (inactive)

**Q.** And the GI50 (A549)?
**A.** 0.566 µM (active)

**Q.** What about the GI50 (DU-145) of the same compound?
**A.** 1.32 µM (inactive)

**Q.** What about the GI50 (IGROV-1) of the same compound?
**A.** 0.861 µM (active)

**Q.** What about the GI50 (MCF7) of the same compound?
**A.** 1.34 µM (inactive)

**Q.** What about the GI50 (MDA-MB-435) of the same compound?
**A.** 0.701 µM (active)

**Q.** And the GI50 (NCI-H460)?
**A.** 0.294 µM (active)

**Q.** What about the GI50 (SF-295) of the same compound?
**A.** 1.28 µM (inactive)

**Q.** What about the GI50 (SK-MEL-28) of the same compound?
**A.** 2.4 µM (inactive)

**Q.** And the GI50 (SK-MEL-2)?
**A.** 1.62 µM (inactive)

**Q.** What about the GI50 (SK-MEL-5) of the same compound?
**A.** 1.6 µM (inactive)

**Q.** And the GI50 (SNB-19)?
**A.** 1.21 µM (inactive)

**Q.** What about the GI50 (SNB-75) of the same compound?
**A.** 1.22 µM (inactive)

**Q.** What about the GI50 (SW-620) of the same compound?
**A.** 0.266 µM (active)

**Q.** What about the GI50 (TK-10) of the same compound?
**A.** 2.42 µM (inactive)

**Q.** And the GI50 (U-251)?
**A.** 0.513 µM (active)

**Q.** What about the GI50 (UO-31) of the same compound?
**A.** 1.68 µM (inactive)

**Q.** Which GI50 (A498) does the source give for `CC(C)(C)OC(=O)NCC(=O)NC1C/C(=N\O)c2sccc21` (stereo not given) here?
**A.** > 100 µM (inactive)

**Q.** And the GI50 (A549)?
**A.** > 100 µM (inactive)

**Q.** And the GI50 (DU-145)?
**A.** > 100 µM (inactive)

**Q.** What about the GI50 (IGROV-1) of the same compound?
**A.** > 100 µM (inactive)

**Q.** And the GI50 (LOX IMVI)?
**A.** > 100 µM (inactive)

**Q.** What about the GI50 (MCF7) of the same compound?
**A.** > 100 µM (inactive)

**Q.** And the GI50 (MDA-MB-435)?
**A.** > 100 µM (inactive)

**Q.** What about the GI50 (NCI-H460) of the same compound?
**A.** > 100 µM (inactive)

**Q.** And the GI50 (OVCAR-3)?
**A.** > 100 µM (inactive)

**Q.** What about the GI50 (SF-295) of the same compound?
**A.** > 100 µM (inactive)

**Q.** What about the GI50 (SK-MEL-28) of the same compound?
**A.** > 100 µM (inactive)

**Q.** And the GI50 (SK-MEL-2)?
**A.** > 100 µM (inactive)

**Q.** What about the GI50 (SK-MEL-5) of the same compound?
**A.** > 100 µM (inactive)

**Q.** What about the GI50 (SNB-19) of the same compound?
**A.** > 100 µM (inactive)

**Q.** And the GI50 (SNB-75)?
**A.** > 100 µM (inactive)

**Q.** And the GI50 (SW-620)?
**A.** > 100 µM (inactive)

**Q.** And the GI50 (TK-10)?
**A.** > 100 µM (inactive)

**Q.** And the GI50 (U-251)?
**A.** > 100 µM (inactive)

**Q.** What about the GI50 (UO-31) of the same compound?
**A.** > 100 µM (inactive)

**Q.** For `CC(C)C(C/C=C1\CC(CO)(COC(=O)C(C)(C)C)OC1=O)C(C)C` (stereo not given), which GI50 (A498) is on record?
**A.** 14.1 µM (inactive)

**Q.** And the GI50 (A549)?
**A.** 4.42 µM (inactive)

**Q.** And the GI50 (DU-145)?
**A.** 4.65 µM (inactive)

**Q.** What about the GI50 (IGROV-1) of the same compound?
**A.** 14.3 µM (inactive)

**Q.** And the GI50 (LOX IMVI)?
**A.** 2.88 µM (inactive)

**Q.** What about the GI50 (MCF7) of the same compound?
**A.** 20.7 µM (inactive)

**Q.** And the GI50 (MDA-MB-435)?
**A.** 11.9 µM (inactive)

**Q.** And the GI50 (NCI-H460)?
**A.** 5.57 µM (inactive)

**Q.** And the GI50 (OVCAR-3)?
**A.** 12.6 µM (inactive)

**Q.** And the GI50 (SF-295)?
**A.** 4.06 µM (inactive)

**Q.** What about the GI50 (SK-MEL-28) of the same compound?
**A.** 13.2 µM (inactive)

**Q.** And the GI50 (SK-MEL-2)?
**A.** 20.6 µM (inactive)

**Q.** And the GI50 (SK-MEL-5)?
**A.** 3.72 µM (inactive)

**Q.** And the GI50 (SNB-19)?
**A.** 13 µM (inactive)

**Q.** And the GI50 (SNB-75)?
**A.** 1.84 µM (inactive)

**Q.** What about the GI50 (SW-620) of the same compound?
**A.** 4.48 µM (inactive)

**Q.** And the GI50 (TK-10)?
**A.** 7.23 µM (inactive)

**Q.** What about the GI50 (U-251) of the same compound?
**A.** 10.7 µM (inactive)

**Q.** And the GI50 (UO-31)?
**A.** 5.09 µM (inactive)

**Q.** Which results are given for `CCCCN1C(=O)CC2[C@@H]3CCc4cc(OC(C)=O)ccc4C3CC[C@]2(C)C1=O` (stereo not given in full)?
**A.** GI50 (A498): > 10 µM (inactive); GI50 (A549): > 10 µM (inactive); GI50 (DU-145): > 10 µM (inactive); GI50 (IGROV-1): > 10 µM (inactive); GI50 (LOX IMVI): > 10 µM (inactive); GI50 (MCF7): > 10 µM (inactive); GI50 (MDA-MB-435): > 10 µM (inactive); GI50 (NCI-H460): > 10 µM (inactive); GI50 (OVCAR-3): > 10 µM (inactive); GI50 (RPMI-8226): > 10 µM (inactive); GI50 (SF-295): > 10 µM (inactive); GI50 (SK-MEL-28): > 10 µM (inactive); GI50 (SK-MEL-2): > 10 µM (inactive); GI50 (SK-MEL-5): > 10 µM (inactive); GI50 (SNB-19): > 10 µM (inactive); GI50 (SW-620): > 10 µM (inactive); GI50 (TK-10): > 10 µM (inactive); GI50 (U-251): > 10 µM (inactive); GI50 (UO-31): > 10 µM (inactive)

**Q.** Which results are given for `O=C1c2ccccc2C(=O)N1CC(O)COc1cccc2ccccc12` (stereo not given)?
**A.** GI50 (A498): 73.5 µM (inactive); GI50 (A549): > 100 µM (inactive); GI50 (DU-145): > 100 µM (inactive); GI50 (IGROV-1): > 100 µM (inactive); GI50 (LOX IMVI): > 100 µM (inactive); GI50 (MCF7): > 100 µM (inactive); GI50 (MDA-MB-435): > 100 µM (inactive); GI50 (NCI-H460): > 100 µM (inactive); GI50 (OVCAR-3): > 100 µM (inactive); GI50 (RPMI-8226): > 100 µM (inactive); GI50 (SF-295): 98.2 µM (inactive); GI50 (SK-MEL-28): > 100 µM (inactive); GI50 (SK-MEL-5): 63.5 µM (inactive); GI50 (SNB-19): > 100 µM (inactive); GI50 (SW-620): > 100 µM (inactive); GI50 (TK-10): > 100 µM (inactive); GI50 (U-251): > 100 µM (inactive); GI50 (UO-31): > 100 µM (inactive)

**Q.** Which results are given for `CNC(=O)Nc1nc2cc([N+](=O)[O-])ccc2[nH]1`?
**A.** GI50 (A498): > 100 µM (inactive); GI50 (A549): > 100 µM (inactive); GI50 (DU-145): > 100 µM (inactive); GI50 (IGROV-1): 64.6 µM (inactive); GI50 (LOX IMVI): > 100 µM (inactive); GI50 (MCF7): > 100 µM (inactive); GI50 (MDA-MB-435): > 100 µM (inactive); GI50 (NCI-H460): 7.55 µM (inactive); GI50 (OVCAR-3): > 100 µM (inactive); GI50 (RPMI-8226): > 100 µM (inactive); GI50 (SF-295): > 100 µM (inactive); GI50 (SK-MEL-28): > 100 µM (inactive); GI50 (SK-MEL-2): 21.5 µM (inactive); GI50 (SK-MEL-5): > 100 µM (inactive); GI50 (SNB-19): > 100 µM (inactive); GI50 (SW-620): > 100 µM (inactive); GI50 (TK-10): > 100 µM (inactive); GI50 (U-251): > 100 µM (inactive); GI50 (UO-31): > 100 µM (inactive)

**Q.** For `COC(=O)C1CCC(=O)NCCCCC(NC(=O)C(N)CC(=O)O)C(=O)N1` (stereo not drawn) (H-Asp-Lys-Glu-OMe; lactam 2-3; configuration not given here), which GI50 (A549) is on record?
**A.** > 100 µM (inactive)

**Q.** What about the GI50 (DU-145) of the same compound?
**A.** > 100 µM (inactive)

**Q.** What about the GI50 (IGROV-1) of the same compound?
**A.** > 100 µM (inactive)

**Q.** And the GI50 (LOX IMVI)?
**A.** > 100 µM (inactive)

**Q.** And the GI50 (MCF7)?
**A.** 62.7 µM (inactive)

**Q.** What about the GI50 (MDA-MB-435) of the same compound?
**A.** > 100 µM (inactive)

**Q.** And the GI50 (NCI-H460)?
**A.** 9.68 µM (inactive)

**Q.** And the GI50 (OVCAR-3)?
**A.** > 100 µM (inactive)

**Q.** What about the GI50 (RPMI-8226) of the same compound?
**A.** > 100 µM (inactive)

**Q.** And the GI50 (SF-295)?
**A.** > 100 µM (inactive)

**Q.** What about the GI50 (SK-MEL-28) of the same compound?
**A.** > 100 µM (inactive)

**Q.** And the GI50 (SK-MEL-2)?
**A.** > 100 µM (inactive)

**Q.** And the GI50 (SK-MEL-5)?
**A.** > 100 µM (inactive)

**Q.** And the GI50 (SNB-19)?
**A.** > 100 µM (inactive)

**Q.** And the GI50 (SNB-75)?
**A.** 88.7 µM (inactive)

**Q.** And the GI50 (SW-620)?
**A.** > 100 µM (inactive)

**Q.** And the GI50 (TK-10)?
**A.** > 100 µM (inactive)

**Q.** And the GI50 (U-251)?
**A.** > 100 µM (inactive)

**Q.** And the GI50 (UO-31)?
**A.** > 100 µM (inactive)
